Results: patent US20250228239A1, “MOLECULES HAVING PESTICIDAL UTILITY, AND INTERMEDIATES, COMPOSITIONS, AND PROCESSES, RELATED THERETO” (priority 2024, published 2025)
Read-outs that look alike come from different tables or passages of the source.

Columns and labels:
Type in all cases: in vivo
[1] = system: Cabbage Looper (Trichoplusia ni, TRIPNI); test: Bioassays on Cabbage Looper (CL), 128-well diet tray assay; details: Trichoplusia ni
Outline: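 Percent mortality, averaged across eight replicate wells, after second-instar larvae (1–5 per well) fed for five to seven days on diet dosed at 50 μg/cm^2. Compound was applied in acetone-water 90:10 and dried; trays kept vented at 25° C under 14:10 photoperiod.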

[2] = system: Yellow Fever Mosquito (Aedes aegypti, AEDSAE); details: for YFM rating: Table ABC / ABC-DP rating
Outline: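 Mortality after 3 days at room temperature is the read-out, scored well by well and converted to a rating. Test molecules came from 4000 ppm stocks in DMSO, further diluted in 90:10 water/acetone, and were exposed to roughly 1-day-old larvae suspended in liver-powder water.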

[3] = system: Beet Armyworm (Spodoptera exigua, LAPHEG); test: Bioassays on Beet Armyworm (BAW), 128-well diet tray assay; details: Spodoptera exigua
Outline: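 Test molecule was dissolved in 90:10 acetone-water and applied at 50 μg/cm^2 onto artificial diet in eight wells, then dried. Second instar larvae, one to five per well, were added, and trays were kept vented at 25° C. with a 14:10 photoperiod for five to seven days before mortality was recorded.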

[4] = Cabbage Looper, rating class, read-out: CL
[5] = Yellow Fever Mosquito, rating class
[6] = Beet Armyworm, rating class, read-out: BAW
[7] = Cabbage Looper, Table ABC / ABC-DP rating, read-out: CL rating
[8] = Beet Armyworm, Table ABC / ABC-DP rating, read-out: BAW rating
[9] = Table ABC: Biological Results, species CL, read-out: CL
[10] = Table ABC: Biological Results, species YFM
[11] = Table ABC: Biological Results, species BAW, read-out: BAW

| SMILES | pest or weed control at 50 µg/cm2 [1, 4] [%] | YFM [2, 5] | pest or weed control at 50 µg/cm2 [3, 6] [%] | pest or weed control at 50 µg/cm2 [1, 9] [%] | YFM [2, 10] | pest or weed control at 50 µg/cm2 [3, 11] [%] | other results |
| --- | --- | --- | --- | --- | --- | --- | --- |
| CC(C)C(=O)Nc1c(F)ccc(NC(=O)c2cc(NC(=O)[C@H]3[C@H](c4ccc(Cl)c(Cl)c4)C3(Cl)Cl)ccc2Cl)c1F [F1606, 2-Chloro-5-((1R,3R)-2,2-dichloro-3-(3,4-dichlorophenyl)cyclopropane-1-carboxamido)-N-(2,4-difluoro-3-isobutyramidophenyl)benzamide] | 50 to 100 | A (80–100) | 50 to 100 |  |  |  |  |
| O=C(Nc1ccc(F)c(NC(=O)C2CCOC2)c1F)c1cc(NC(=O)[C@H]2[C@H](c3ccc(F)c(C(F)(F)F)c3)C2(Cl)Cl)ccc1Cl (stereo partly drawn) [F1480, N-(3-(2-Chloro-5-((1R,3R)-2,2-dichloro-3-(4-fluoro-3-(trifluoromethyl)phenyl)cyclopropane-1-carboxamido)benzamido)-2,6-difluorophenyl)tetrahydrofuran-3-carboxamide] | 50 to 100 | A (80–100) | 50 to 100 |  |  |  |  |
| O=C(Nc1ccc(F)c(NC(=O)C(F)F)c1F)c1cc(NC(=O)[C@H]2[C@H](c3cc(Cl)cc(Br)c3)C2(Cl)Cl)ccc1Cl (relative stereo) [F1618, trans-5-(3-(3-Bromo-5-chlorophenyl)-2,2-dichlorocyclopropane-1-carboxamido)-2-chloro-N-(3-(2,2-difluoroacetamido)-2,4-difluorophenyl)benzamide] | 50 to 100 | A (80–100) | 50 to 100 |  |  |  |  |
| O=C(Nc1ccc(F)c(NC(=O)C(F)(F)F)c1F)c1cc(NC(=O)[C@H]2[C@H](c3cc(Cl)c(Cl)c(Cl)c3)C2(Cl)Cl)cc(F)c1F [F1438, 5-((1R,3R)-2,2-Dichloro-3-(3,4,5-trichlorophenyl)cyclopropane-1-carboxamido)-N-(2,4-difluoro-3-(2,2,2-trifluoroacetamido)phenyl)-2,3-difluorobenzamide] | 50 to 100 | A (80–100) | 50 to 100 |  |  |  |  |
| Cc1cc(N)ccc1NC(=O)c1cc(NC(=O)[C@H]2[C@H](c3ccc(Cl)c(Cl)c3)C2(Cl)Cl)ccc1Cl (relative stereo) [DP1, trans-N-(4-amino-2-methylphenyl)-2-chloro-5-(2,2-dichloro-3-(3,4-dichlorophenyl)cyclopropane-1-carboxamido)benzamide] |  |  |  |  |  |  | mortality at 50 µg/cm2 ([1]; 168 h, second instar larvae, 50 μg/cm^2 of test molecule on artificial diet, 25° C., five to seven days, average of eight wells, read-out: CL % Control (or Mortality) rating): 50 to 100%; pest or weed control at 50 µg/cm2 [1, 7]: 50 to 100%; YFM rating ([2]; Yellow Fever Mosquito): A (80–100); YFM % Control (or Mortality) rating ([2]; about 1 day-old larvae, 4000 ppm master solution diluted with 90:10 water/acetone, 15 μL per well plus 220 μL larval mixture, 3 days, mortality): A (80–100); mortality at 50 µg/cm2 ([3]; 168 h, second instar larvae, 50 μg/cm^2 of test molecule on artificial diet, 25° C., five to seven days, average of eight wells, read-out: BAW % Control (or Mortality) rating): 50 to 100%; pest or weed control at 50 µg/cm2 [3, 8]: 50 to 100% |
| O=C(Nc1ccc(F)c(I)c1F)c1cc(NC(=O)[C@H]2[C@H](c3ccc(F)c(C(F)(F)F)c3)C2(Cl)Cl)ccc1Cl [F1758, 2-Chloro-5-((1R,3R)-2,2-dichloro-3-(4-fluoro-3-(trifluoromethyl)phenyl)cyclopropane-1-carboxamido)-N-(2,4-difluoro-3-iodophenyl)benzamide] | 50 to 100 | A (80–100) | 50 to 100 |  |  |  |  |
| O=C(Nc1ccc(F)cc1F)c1cc(NC(=O)[C@H]2[C@H](c3cccc(S(F)(F)(F)(F)F)c3)C2(Cl)Cl)ccc1Cl (relative stereo) [F1090, trans-2-Chloro-5-(2,2-dichloro-3-(3-(pentafluoro-λ^6-sulfanyl)phenyl)cyclopropane-1-carboxamido)-N-(2,4-difluorophenyl)benzamide] |  |  |  | 50 to 100 | A (80–100) | 50 to 100 |  |
| Nc1c(F)ccc(NC(=O)c2cc(NC(=O)[C@H]3[C@H](c4cc(Cl)c(F)c(Cl)c4)C3(Cl)Cl)ccc2Cl)c1F (relative stereo) [F1181, trans-N-(3-Amino-2,4-difluorophenyl)-2-chloro-5-(2,2-dichloro-3-(3,5-dichloro-4-fluorophenyl)cyclopropane-1-carboxamido)benzamide] |  |  |  | 50 to 100 | A (80–100) | 50 to 100 |  |
| O=C(Nc1c(F)cc(F)cc1Br)c1cc(NC(=O)[C@H]2[C@H](c3cc(Cl)cc(Cl)c3)C2(Cl)Cl)ccc1Cl (relative stereo) [F1309, trans-N-(2-Bromo-4,6-difluorophenyl)-2-chloro-5-(2,2-dichloro-3-(3,5-dichlorophenyl)cyclopropane-1-carboxamido)benzamide] |  |  |  | 50 to 100 | A (80–100) | 50 to 100 |  |
| O=C(Nc1ccc(F)cc1F)c1cc(NC(=O)C2C(c3cc(Cl)cc(S(F)(F)(F)(F)F)c3)C2(Cl)Cl)ccc1Cl (stereo not drawn) [F1233, cis-2-Chloro-5-(2,2-dichloro-3-(3-chloro-5-(pentafluoro-λ^6-sulfanyl)phenyl)cyclopropane-1-carboxamido)-I-(2,4-difluorophenyl)benzamide] |  |  |  | 50 to 100 | A (80–100) | 50 to 100 |  |
| O=C(Nc1cc(NC(=O)C(F)F)c(F)c(F)c1F)c1cc(NC(=O)[C@H]2[C@H](c3ccc(F)c(C(F)(F)F)c3)C2(Cl)Cl)ccc1Cl [F1744, 2-Chloro-5-((1R,3R)-2,2-dichloro-3-(4-fluoro-3-(trifluoromethyl)phenyl)cyclopropane-1-carboxamido)-N-(5-(2,2-difluoroacetamido)-2,3,4-trifluorophenyl)benzamide] | 50 to 100 | A (80–100) | 50 to 100 |  |  |  |  |
| Nc1c(F)ccc(NC(=O)c2cc(NC(=O)[C@H]3[C@H](c4cccc(F)c4)C3(Cl)Cl)ccc2Cl)c1F (relative stereo) [F1596, trans-N-(3-Amino-2,4-difluorophenyl)-2-chloro-5-(2,2-dichloro-3-(3-fluorophenyl)cyclopropane-1-carboxamido)benzamide] | 50 to 100 | A (80–100) | 50 to 100 |  |  |  |  |
| O=C(Nc1ccc(F)c(NC(=O)C2CCOC2)c1F)c1cc(NC(=O)[C@H]2[C@H](c3ccc(Cl)c(Cl)c3)C2(Cl)Cl)ccc1Cl (stereo partly drawn) [F1610, N-(3-(2-Chloro-5-((1R,3R)-2,2-dichloro-3-(3,4-dichlorophenyl)cyclopropane-1-carboxamido)benzamido)-2,6-difluorophenyl)tetrahydrofuran-3-carboxamide] | 50 to 100 | A (80–100) | 50 to 100 |  |  |  |  |
| Nc1c(F)ccc(NC(=O)c2cc(NC(=O)[C@H]3[C@@H](c4cc(Cl)c(Cl)c(C(F)(F)F)c4)C3(Cl)Cl)ccc2Cl)c1F (relative stereo) [F1150, cis-N-(3-Amino-2,4-difluorophenyl)-2-chloro-5-(2,2-dichloro-3-(3,4-dichloro-5-(trifluoromethyl)phenyl)cyclopropane-1-carboxamido)benzamide] |  |  |  | 50 to 100 | A (80–100) | 50 to 100 |  |
| O=C(NCC(F)(F)F)c1cc(NC(=O)[C@H]2[C@H](c3cc(Br)cc(S(F)(F)(F)(F)F)c3)C2(Cl)Cl)ccc1Cl (relative stereo) [F2008, trans-5-(3-(3-Bromo-5-(pentafluoro-λ^6-sulfanyl)phenyl)-2,2-dichlorocyclopropane-1-carboxamido)-2-chloro-N-(2,2,2-trifluoroethyl)benzamide] |  |  |  |  |  |  | pest or weed control at 50 µg/cm2 [1, 7]: 50 to 100%; YFM rating ([2]; Yellow Fever Mosquito): A (80–100); pest or weed control at 50 µg/cm2 [3, 8]: 50 to 100% |
| Cc1c(Cl)cc(NC(=O)[C@H]2[C@H](c3ccc(F)c(Cl)c3)C2(Cl)Cl)cc1C(=O)NCCCCl (relative stereo) [F2044, trans-3-Chloro-N-(3-chloropropyl)-5-(2,2-dichloro-3-(3-chloro-4-fluorophenyl)cyclopropane-1-carboxamido)-2-methylbenzamide] |  |  |  |  |  |  | pest or weed control at 50 µg/cm2 [1, 7]: 50 to 100%; YFM rating ([2]; Yellow Fever Mosquito): A (80–100); pest or weed control at 50 µg/cm2 [3, 8]: 50 to 100% |
| O=C(CC(F)(F)F)Nc1c(F)ccc(NC(=O)c2cc(NC(=O)[C@H]3[C@H](c4ccc(Cl)c(Cl)c4)C3(Cl)Cl)ccc2Cl)c1F [F1418, 2-Chloro-5-((1R,3R)-2,2-dichloro-3-(3,4-dichlorophenyl)cyclopropane-1-carboxamido)-N-(2,4-difluoro-3-(3,3,3-trifluoropropanamido)phenyl)benzamide] | 50 to 100 | A (80–100) | 50 to 100 |  |  |  |  |
| Cc1c(Cl)cc(NC(=O)[C@H]2[C@H](c3ccc(F)c(Cl)c3)C2(Cl)Cl)cc1C(=O)Nc1ccc(F)cc1 (relative stereo) [F1189, trans-3-Chloro-5-(2,2-dichloro-3-(3-chloro-4-fluorophenyl)cyclopropane-1-carboxamido)-N-(4-fluorophenyl)-2-methylbenzamide] |  |  |  | 50 to 100 | A (80–100) | 50 to 100 |  |
